Where two headings read alike, the source gives them in different places.
Experiments:
c-Kit = c-Kit (Homo sapiens (Human), UniProt P10721); assay: Inhibition of c-Kit kinase activity (HTRF KinEASE-TK); assay type: biochemical; conditions: biochemical
Method in brief: (§1)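 Recombinant kinases (2 nM CSF1R and c-Kit, 10 nM PDGFRα/β, 2× working) preincubated 1 h with compound in 50 mM HEPES pH 7.4, 5 mM MgCl2 (c-Kit) or 10 mM (others), 2 mM MnCl2; 2× ATP: c-Kit 16 μM, PDGFRα 1 μM, PDGFRβ 40 μM, CSF1R 20 μM. 120 min reaction at rt; TR-FRET 665/620 nm; IC50 by 4-parameter fit.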

PDGFRα = PDGFRα (Homo sapiens (Human), UniProt P16234); assay: Inhibition of PDGFRα kinase activity (HTRF KinEASE-TK); conditions: biochemical
Method in brief: as §1

PDGFRβ = PDGFRβ (Homo sapiens (Human), UniProt P09619); assay: Inhibition of PDGFRβ kinase activity (HTRF KinEASE-TK); conditions: biochemical
Method in brief: as §1

CSF1R = CSF1R (Homo sapiens (Human), UniProt P07333); assay: Inhibition of CSF1R kinase activity (HTRF KinEASE-TK); conditions: biochemical
Method in brief: as §1

FLT3 = FLT3 (Homo sapiens (Human), UniProt P36888); assay: Inhibition of FLT3 kinase activity (HTRF KinEASE-TK); assay type: biochemical; conditions: biochemical
Method in brief: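 FLT3 tyrosine kinase activity was measured with the HTRF KinEASE-TK kit by following phosphorylation of a biotinylated TK peptide. After the 45 min reaction, 10 μL of detection mix was added: 0.2 μM (2×) Streptavidin-XL665 and 2 μM (2×) TK-Antibody-Cryptate in detection buffer. After 60 min, TR-FRET was read on an Envision as the 665 nm/620 nm emission ratio with 320 nm excitation.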

[1] = test system: Phospho-KIT (Y703) in M07e cells; assay: Phospho-KIT (Y703) cellular assay in M07e cells; assay type: cell-based; conditions: M-07e, read-out: M07e Cell IC50
Method in brief: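 Serum-starved M07e cells preincubated 50 min at 37° C with 11-point half-log compound titration, then stimulated 10 min with SCF at 90.9 ng/mL final. Fixed, permeabilized cells stained for phospho-KIT Y703 and read by flow cytometry (live-gated geometric mean); IC50 by 4-parameter fit normalized to DMSO and positive control.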

[2] = phospho-KIT (Y703), SCF-stimulated M07e cells

Chain of PDGFRα (P16234 24-1089): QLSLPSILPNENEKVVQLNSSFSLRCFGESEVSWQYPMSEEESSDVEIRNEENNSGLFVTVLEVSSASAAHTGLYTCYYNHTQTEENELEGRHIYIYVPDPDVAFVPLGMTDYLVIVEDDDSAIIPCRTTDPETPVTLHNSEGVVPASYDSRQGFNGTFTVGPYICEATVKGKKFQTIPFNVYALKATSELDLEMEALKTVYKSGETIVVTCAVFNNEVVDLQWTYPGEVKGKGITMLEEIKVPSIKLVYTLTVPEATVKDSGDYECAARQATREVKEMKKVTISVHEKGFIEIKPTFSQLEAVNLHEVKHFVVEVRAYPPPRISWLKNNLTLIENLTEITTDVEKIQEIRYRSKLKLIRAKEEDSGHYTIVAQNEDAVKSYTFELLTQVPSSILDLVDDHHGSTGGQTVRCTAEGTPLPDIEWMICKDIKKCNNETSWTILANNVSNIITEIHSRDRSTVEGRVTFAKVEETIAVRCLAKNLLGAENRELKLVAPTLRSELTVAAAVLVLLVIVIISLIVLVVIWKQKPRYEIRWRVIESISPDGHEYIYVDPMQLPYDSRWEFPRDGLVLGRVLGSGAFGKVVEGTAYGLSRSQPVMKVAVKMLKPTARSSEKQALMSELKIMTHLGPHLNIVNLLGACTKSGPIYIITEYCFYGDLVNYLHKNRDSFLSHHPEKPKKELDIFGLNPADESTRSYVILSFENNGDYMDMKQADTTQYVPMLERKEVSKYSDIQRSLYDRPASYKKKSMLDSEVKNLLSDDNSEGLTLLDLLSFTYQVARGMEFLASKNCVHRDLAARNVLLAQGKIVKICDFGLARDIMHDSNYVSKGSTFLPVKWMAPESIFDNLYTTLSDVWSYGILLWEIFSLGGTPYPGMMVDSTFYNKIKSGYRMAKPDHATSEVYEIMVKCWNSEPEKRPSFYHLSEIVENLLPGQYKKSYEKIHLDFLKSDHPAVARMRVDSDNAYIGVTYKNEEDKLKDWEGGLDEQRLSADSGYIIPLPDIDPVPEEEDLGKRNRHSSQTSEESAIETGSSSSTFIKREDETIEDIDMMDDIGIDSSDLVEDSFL
Chain of FLT3 (P36888 27-993): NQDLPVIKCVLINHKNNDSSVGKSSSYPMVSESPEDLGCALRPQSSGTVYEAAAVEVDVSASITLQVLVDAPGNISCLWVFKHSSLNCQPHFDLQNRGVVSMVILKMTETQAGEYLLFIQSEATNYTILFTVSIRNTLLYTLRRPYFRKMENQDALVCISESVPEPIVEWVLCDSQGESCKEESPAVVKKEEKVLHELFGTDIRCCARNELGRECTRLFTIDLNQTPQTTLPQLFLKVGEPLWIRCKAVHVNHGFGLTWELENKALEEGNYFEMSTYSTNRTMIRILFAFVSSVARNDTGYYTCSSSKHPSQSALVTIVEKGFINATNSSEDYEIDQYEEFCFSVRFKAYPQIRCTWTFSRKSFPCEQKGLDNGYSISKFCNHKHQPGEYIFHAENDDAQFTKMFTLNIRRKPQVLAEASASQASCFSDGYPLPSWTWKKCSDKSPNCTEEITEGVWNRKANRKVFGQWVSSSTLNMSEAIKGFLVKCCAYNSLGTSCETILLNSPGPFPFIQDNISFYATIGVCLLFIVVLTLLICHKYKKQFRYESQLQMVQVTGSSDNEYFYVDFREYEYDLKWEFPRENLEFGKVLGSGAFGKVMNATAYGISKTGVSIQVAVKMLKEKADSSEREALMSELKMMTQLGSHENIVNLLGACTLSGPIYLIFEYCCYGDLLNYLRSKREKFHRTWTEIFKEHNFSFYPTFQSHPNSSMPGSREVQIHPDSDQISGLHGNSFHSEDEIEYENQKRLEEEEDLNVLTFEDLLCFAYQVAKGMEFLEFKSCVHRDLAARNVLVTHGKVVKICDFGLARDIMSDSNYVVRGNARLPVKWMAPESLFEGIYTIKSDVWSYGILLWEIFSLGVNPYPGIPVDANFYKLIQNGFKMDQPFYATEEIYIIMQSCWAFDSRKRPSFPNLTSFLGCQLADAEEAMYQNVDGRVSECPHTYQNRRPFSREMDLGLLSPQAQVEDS
Chain of PDGFRβ (P09619 33-1106): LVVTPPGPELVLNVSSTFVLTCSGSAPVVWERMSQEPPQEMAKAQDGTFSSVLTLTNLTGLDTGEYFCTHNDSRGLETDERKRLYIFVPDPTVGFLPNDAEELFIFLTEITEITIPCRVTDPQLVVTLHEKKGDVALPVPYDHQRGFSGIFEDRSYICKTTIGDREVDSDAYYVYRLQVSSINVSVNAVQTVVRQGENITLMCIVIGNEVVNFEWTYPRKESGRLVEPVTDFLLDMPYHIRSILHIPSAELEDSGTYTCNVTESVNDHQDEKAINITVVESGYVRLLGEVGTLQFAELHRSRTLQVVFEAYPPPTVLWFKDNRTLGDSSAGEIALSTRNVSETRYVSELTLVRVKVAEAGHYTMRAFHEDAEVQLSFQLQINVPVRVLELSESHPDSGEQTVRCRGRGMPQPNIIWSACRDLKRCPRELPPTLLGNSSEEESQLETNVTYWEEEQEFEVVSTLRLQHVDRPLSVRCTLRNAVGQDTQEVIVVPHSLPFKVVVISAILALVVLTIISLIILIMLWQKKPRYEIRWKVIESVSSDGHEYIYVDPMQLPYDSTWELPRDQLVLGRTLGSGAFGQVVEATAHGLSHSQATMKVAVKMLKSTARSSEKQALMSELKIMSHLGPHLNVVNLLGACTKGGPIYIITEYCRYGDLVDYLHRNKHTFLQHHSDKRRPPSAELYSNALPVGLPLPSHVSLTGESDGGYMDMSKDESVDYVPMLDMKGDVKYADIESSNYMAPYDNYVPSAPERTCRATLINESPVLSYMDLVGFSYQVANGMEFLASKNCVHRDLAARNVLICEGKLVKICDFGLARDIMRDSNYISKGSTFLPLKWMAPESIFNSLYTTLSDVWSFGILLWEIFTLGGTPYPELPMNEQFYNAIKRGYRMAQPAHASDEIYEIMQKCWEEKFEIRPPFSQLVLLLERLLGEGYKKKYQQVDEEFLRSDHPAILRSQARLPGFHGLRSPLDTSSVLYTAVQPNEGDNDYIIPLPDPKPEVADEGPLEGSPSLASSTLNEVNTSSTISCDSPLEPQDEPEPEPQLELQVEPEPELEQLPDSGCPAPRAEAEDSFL
Chain of c-Kit (P10721 26-976): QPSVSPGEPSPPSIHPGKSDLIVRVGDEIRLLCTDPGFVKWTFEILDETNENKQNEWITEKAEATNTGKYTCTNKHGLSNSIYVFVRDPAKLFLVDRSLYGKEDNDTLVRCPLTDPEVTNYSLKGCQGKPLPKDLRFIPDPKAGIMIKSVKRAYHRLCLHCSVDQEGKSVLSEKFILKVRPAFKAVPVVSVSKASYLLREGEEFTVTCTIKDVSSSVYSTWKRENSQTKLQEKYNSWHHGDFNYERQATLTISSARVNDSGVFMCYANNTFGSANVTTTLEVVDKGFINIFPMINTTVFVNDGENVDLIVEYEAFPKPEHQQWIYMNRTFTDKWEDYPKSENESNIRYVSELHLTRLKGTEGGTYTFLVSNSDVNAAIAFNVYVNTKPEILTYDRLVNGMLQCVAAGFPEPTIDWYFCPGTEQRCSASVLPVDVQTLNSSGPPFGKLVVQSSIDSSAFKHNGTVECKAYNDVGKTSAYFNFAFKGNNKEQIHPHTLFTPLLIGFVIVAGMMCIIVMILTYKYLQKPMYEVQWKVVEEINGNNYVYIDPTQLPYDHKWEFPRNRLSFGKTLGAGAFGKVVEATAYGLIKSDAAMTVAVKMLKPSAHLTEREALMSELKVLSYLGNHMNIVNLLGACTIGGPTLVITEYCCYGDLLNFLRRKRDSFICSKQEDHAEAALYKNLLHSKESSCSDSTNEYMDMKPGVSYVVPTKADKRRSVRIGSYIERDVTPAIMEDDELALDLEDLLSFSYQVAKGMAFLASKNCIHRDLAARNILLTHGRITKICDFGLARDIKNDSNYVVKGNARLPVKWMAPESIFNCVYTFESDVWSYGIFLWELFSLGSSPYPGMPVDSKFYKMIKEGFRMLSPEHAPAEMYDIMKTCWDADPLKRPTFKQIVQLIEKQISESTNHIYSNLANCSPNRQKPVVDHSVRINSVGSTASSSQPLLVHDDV
Chain of CSF1R (P07333 20-972): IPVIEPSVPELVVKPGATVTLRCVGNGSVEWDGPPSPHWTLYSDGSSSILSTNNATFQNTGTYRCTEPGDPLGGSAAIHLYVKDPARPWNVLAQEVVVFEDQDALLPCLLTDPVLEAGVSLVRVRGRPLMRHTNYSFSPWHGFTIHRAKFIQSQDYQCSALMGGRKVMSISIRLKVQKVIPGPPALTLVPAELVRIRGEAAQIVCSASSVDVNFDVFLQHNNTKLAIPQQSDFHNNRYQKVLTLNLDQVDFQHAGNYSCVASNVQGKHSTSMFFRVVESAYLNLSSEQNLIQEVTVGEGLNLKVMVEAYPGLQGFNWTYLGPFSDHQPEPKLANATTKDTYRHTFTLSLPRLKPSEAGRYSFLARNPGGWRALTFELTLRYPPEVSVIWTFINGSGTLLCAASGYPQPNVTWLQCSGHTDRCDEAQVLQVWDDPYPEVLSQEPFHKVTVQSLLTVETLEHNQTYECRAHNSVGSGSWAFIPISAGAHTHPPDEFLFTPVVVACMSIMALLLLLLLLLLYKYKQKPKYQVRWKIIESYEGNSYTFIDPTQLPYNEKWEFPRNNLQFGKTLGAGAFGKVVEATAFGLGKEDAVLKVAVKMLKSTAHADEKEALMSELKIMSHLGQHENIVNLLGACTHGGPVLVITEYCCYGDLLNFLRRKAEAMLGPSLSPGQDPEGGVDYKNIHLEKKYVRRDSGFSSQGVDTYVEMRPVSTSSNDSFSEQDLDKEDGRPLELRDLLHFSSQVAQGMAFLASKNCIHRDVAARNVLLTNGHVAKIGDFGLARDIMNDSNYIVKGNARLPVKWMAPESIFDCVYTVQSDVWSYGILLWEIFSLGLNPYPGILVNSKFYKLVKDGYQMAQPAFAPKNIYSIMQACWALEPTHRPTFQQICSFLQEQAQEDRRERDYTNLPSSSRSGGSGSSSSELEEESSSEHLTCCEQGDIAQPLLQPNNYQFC

SMILES	IC50 (c-Kit)	IC50 (PDGFRα)	IC50 (PDGFRβ)	IC50 (CSF1R)	IC50 (FLT3)	IC50 [1, 2]	IC50 (c-Kit; HTRF KinEASE-TK)	IC50 (PDGFRα; HTRF KinEASE-TK)	IC50 (PDGFRβ; HTRF KinEASE-TK)	IC50 (CSF1R; HTRF KinEASE-TK)	IC50 (FLT3; HTRF KinEASE-TK)	IC50 ([1]; Phospho-KIT (Y703), M07e cells)	IC50 [1]
Cc1cc(F)c(C(=O)Nc2ccc(OC(F)(F)F)cn2)cc1NC(=O)c1cnc(N)s1 [Example 8, 2-Amino-N-[4-fluoro-2-methyl-5-[[5-(trifluoromethoxy)pyridin-2-yl]carbamoyl]phenyl]-1,3-thiazole-5-carboxamide]	< 100 nM	100 to 1000 nM	100 to 1000 nM	100 to 1000 nM	> 1000 nM	< 100 nM	–	–	–	–	–	–	–
COCc1ccc(NC(=O)c2cc(NC(=O)c3cnc(N)s3)c(F)cc2F)nc1 [Example 215, 2-Amino-N-[2,4-difluoro-5-[[5-(methoxymethyl)pyridin-2-yl]carbamoyl]phenyl]-1,3-thiazole-5-carboxamide]	–	–	–	–	–	–	100 to 1000 nM	> 1000 nM	> 1000 nM	> 1000 nM	> 1000 nM	> 1000 nM	–
COCc1ccc(NC(=O)c2cc(NC(=O)c3cnc(N)s3)c(C)cc2F)nc1 [Example 10, 2-Amino-N-[4-fluoro-5-[[5-(methoxymethyl)pyridin-2-yl]carbamoyl]-2-methylphenyl]-1,3-thiazole-5-carboxamide]	< 100 nM	> 1000 nM	> 1000 nM	> 1000 nM	> 1000 nM	< 100 nM	–	–	–	–	–	–	–
Cc1ncc(C(=O)Nc2cc(C(=O)Nc3ccc(CC(F)(F)F)cn3)c(C)cc2C)s1 [Example 75, N-(2,4-dimethyl-5-((5-(2,2,2-trifluoroethyl)pyridin-2-yl)carbamoyl)phenyl)-2-methylthiazole-5-carboxamide]	–	–	–	–	–	–	100 to 1000 nM	> 1000 nM	> 1000 nM	> 1000 nM	> 1000 nM	–	100 to 1000 nM
Cc1cc(F)c(C(=O)Nc2ccn(C(F)F)n2)cc1NC(=O)c1cnc(N)s1 [Example 181, 2-Amino-N-[5-[[1-(difluoromethyl)pyrazol-3-yl]carbamoyl]-4-fluoro-2-methylphenyl]-1,3-thiazole-5-carboxamide]	–	–	–	–	–	–	< 100 nM	> 1000 nM	> 1000 nM	> 1000 nM	> 1000 nM	< 100 nM	–
CO[C@H](C)c1ccc(NC(=O)c2cc(NC(=O)c3cnc(N)s3)c(C)cc2F)nc1 [Example 256, 2-Amino-N-[4-fluoro-5-[[5-[(1R)-1-methoxyethyl]pyridin-2-yl]carbamoyl]-2-methylphenyl]-1,3-thiazole-5-carboxamide]	–	–	–	–	–	–	< 100 nM	> 1000 nM	100 to 1000 nM	> 1000 nM	> 1000 nM	< 100 nM	–
CCOc1cnc(NC(=O)c2cc(NC(=O)c3cnc(C)s3)c(C)cc2F)cn1 [Example 17, N-[5-[(5-Ethoxypyrazin-2-yl)carbamoyl]-4-fluoro-2-methylphenyl]-2-methyl-1,3-thiazole-5-carboxamide]	–	–	–	–	–	–	< 100 nM	> 1000 nM	> 1000 nM	> 1000 nM	> 1000 nM	< 100 nM	–
CCOCc1ccc(NC(=O)c2cc(NC(=O)c3cnc(N)s3)c(C)cc2F)nc1 [Example 196, 2-Amino-N-[5-[[5-(ethoxymethyl)pyridin-2-yl]carbamoyl]-4-fluoro-2-methylphenyl]-1,3-thiazole-5-carboxamide]	–	–	–	–	–	–	< 100 nM	> 1000 nM	> 1000 nM	> 1000 nM	> 1000 nM	< 100 nM	–
Cc1cc(F)c(C(=O)Nc2ccc(OC3CC3)nn2)cc1NC(=O)c1cnc(N)s1 [Example 258, 2-Amino-N-[5-[(6-cyclopropyloxypyridazin-3-yl)carbamoyl]-4-fluoro-2-methylphenyl]-1,3-thiazole-5-carboxamide]	–	–	–	–	–	–	< 100 nM	100 to 1000 nM	100 to 1000 nM	100 to 1000 nM	> 1000 nM	< 100 nM	–

More lines, main results first:

IC50 (c-Kit)	IC50 (PDGFRα)	IC50 (PDGFRβ)	IC50 (CSF1R)	IC50 (FLT3)	IC50 [1, 2]	IC50 (c-Kit; HTRF KinEASE-TK)	IC50 (PDGFRα; HTRF KinEASE-TK)	IC50 (PDGFRβ; HTRF KinEASE-TK)	IC50 (CSF1R; HTRF KinEASE-TK)	IC50 (FLT3; HTRF KinEASE-TK)	IC50 ([1]; Phospho-KIT (Y703), M07e cells)	SMILES	IC50 [1]
–	–	–	–	–	–	< 100 nM	> 1000 nM	100 to 1000 nM	> 1000 nM	> 1000 nM	< 100 nM	Cc1cc(F)c(C(=O)Nc2ccc(OCC3CC3)cn2)cc1NC(=O)c1cnc(N)s1 [Example 143, 2-Amino-N-[5-[[5-(cyclopropylmethoxy)pyridin-2-yl]carbamoyl]-4-fluoro-2-methylphenyl]-1,3-thiazole-5-carboxamide]	–
–	–	–	–	–	–	< 100 nM	100 to 1000 nM	100 to 1000 nM	100 to 1000 nM	> 1000 nM	< 100 nM	Cc1cc(F)c(C(=O)Nc2ccc3c(n2)COCC3)cc1NC(=O)c1cnc(N)s1 [Example 114, 2-Amino-N-[5-(6,8-dihydro-5H-pyrano[3,4-b]pyridin-2-ylcarbamoyl)-4-fluoro-2-methylphenyl]-1,3-thiazole-5-carboxamide]	–
–	–	–	–	–	–	< 100 nM	100 to 1000 nM	< 100 nM	100 to 1000 nM	> 1000 nM	< 100 nM	Cc1cc(F)c(C(=O)Nc2ccc(OC3CCC3)cn2)cc1NC(=O)c1cnc(N)s1 [Example 134, 2-Amino-N-[5-[(5-cyclobutyloxypyridin-2-yl)carbamoyl]-4-fluoro-2-methylphenyl]-1,3-thiazole-5-carboxamide]	–
–	–	–	–	–	–	< 100 nM	> 1000 nM	> 1000 nM	> 1000 nM	> 1000 nM	< 100 nM	Nc1ncc(C(=O)Nc2cc(C(=O)Nc3ccc(C(F)F)cn3)c(F)cc2F)s1 [Example 217, 2-Amino-N-[5-[[5-(difluoromethyl)pyridin-2-yl]carbamoyl]-2,4-difluorophenyl]-1,3-thiazole-5-carboxamide]	–
–	–	–	–	–	–	< 100 nM	> 1000 nM	> 1000 nM	100 to 1000 nM	> 1000 nM	< 100 nM	Nc1ncc(C(=O)Nc2cc(C(=O)Nc3ccc(C(F)(F)F)cn3)c(F)cc2F)s1 [Example 216, 2-Amino-N-[2,4-difluoro-5-[[5-(trifluoromethyl)pyridin-2-yl]carbamoyl]phenyl]-1,3-thiazole-5-carboxamide]	–
–	–	–	–	–	–	< 100 nM	> 1000 nM	> 1000 nM	> 1000 nM	> 1000 nM	< 100 nM	Cc1ncc(C(=O)Nc2cc(C(=O)Nc3cnc(N4CCC[C@@H]4C(F)(F)F)cn3)c(F)cc2C)s1 [Example 96, N-[4-fluoro-2-methyl-5-[[5-[(2R)-2-(trifluoromethyl)pyrrolidin-1-yl]pyrazin-2-yl]carbamoyl]phenyl]-2-methyl-1,3-thiazole-5-carboxamide]	–
–	–	–	–	–	–	< 100 nM	> 1000 nM	> 1000 nM	> 1000 nM	> 1000 nM	< 100 nM	Nc1ncc(C(=O)Nc2cc(C(=O)Nc3ccc(OC(F)F)cn3)c(F)cc2F)s1 [Example 219, 2-Amino-N-[5-[[5-(difluoromethoxy)pyridin-2-yl]carbamoyl]-2,4-difluorophenyl]-1,3-thiazole-5-carboxamide]	–
–	–	–	–	–	–	< 100 nM	100 to 1000 nM	> 1000 nM	> 1000 nM	> 1000 nM	< 100 nM	Cc1ncc(C(=O)Nc2cc(C(=O)Nc3cnc(OCC(F)F)cn3)c(F)cc2C)s1 [Example 86, N-{5-[N-5-(2,2-difluoroethoxy)-2-pyrazinylcarbamoyl]-4-fluoro-2-tolyl}-2-methyl-1,3-thiazole-5-carboxamide]	–
–	–	–	–	–	–	< 100 nM	100 to 1000 nM	100 to 1000 nM	> 1000 nM	> 1000 nM	< 100 nM	Cc1cc(F)c(C(=O)Nc2ccn(C3CCC3)n2)cc1NC(=O)c1cnc(N)s1 [Example 155, 2-Amino-N-[5-[(1-cyclobutylpyrazol-3-yl)carbamoyl]-4-fluoro-2-methylphenyl]-1,3-thiazole-5-carboxamide]	–
–	–	–	–	–	–	< 100 nM	> 1000 nM	> 1000 nM	> 1000 nM	> 1000 nM	< 100 nM	CO[C@H]1C[C@@H](n2ccc(NC(=O)c3cc(NC(=O)c4cnc(N)s4)c(C)cc3F)n2)C1 [Example 185, 2-Amino-N-[4-fluoro-5-[[1-(cis-3-methoxycyclobutyl)pyrazol-3-yl]carbamoyl]-2-methylphenyl]-1,3-thiazole-5-carboxamide]	–
–	–	–	–	–	–	< 100 nM	> 1000 nM	100 to 1000 nM	> 1000 nM	> 1000 nM	< 100 nM	Cc1cc(F)c(C(=O)Nc2ccn([C@@H]3CCOC3)n2)cc1NC(=O)c1cnc(N)s1 [Example 149, 2-Amino-N-[4-fluoro-2-methyl-5-[[1-[(3R)-oxolan-3-yl]pyrazol-3-yl]carbamoyl]phenyl]-1,3-thiazole-5-carboxamide]	–
–	–	–	–	–	–	< 100 nM	> 1000 nM	> 1000 nM	> 1000 nM	> 1000 nM	< 100 nM	CCc1ccc(NC(=O)c2cc(NC(=O)c3cnc(C)s3)c(C)cc2F)nc1 [Example 82, N-[5-[(5-ethylpyridin-2-yl)carbamoyl]-4-fluoro-2-methylphenyl]-2-methyl-1,3-thiazole-5-carboxamide]	–

— patent publication US20250145606A1 (Arcus Biosciences, Inc., priority 2023, published 2025)
